# Columns and labels:
# [1] = test system: caco-2 cells (human intestinal epithelial cells); test: M30-ApoptosisSense ELISA (cytokeratin 18) apoptosis rate in intestinal epithelial cells; format: cell-based; details: p<0.05, FIG. 1
# Description: The apoptosis rate in epithelial cells was measured by the M30-ApoptosisSense ELISA
# (PEVIVA, Bromma, Sweden), detecting cytokeratin 18 with a specific monoclonal M30 antibody, whereas before cytokeratin 18 was cleaved by the enzyme caspase. The caco-2 cells (human intestinal epithelial cells) grew semiconfluent in cell culture flasks, before plating them on a 6 well plate. One plate was stimulated with 10^−5 and 10^−6 M KdPT solved in routine medium (SFM, white column), the control plate was stimulated with the routine-medium alone.
# [2] = test system: human dermal microvascular endothelial cells (HMEC); test: M30-ApoptosisSense ELISA (cytokeratin 18) apoptosis rate in HMEC; format: cell-based
# Description: To further elucidate the impact of KdPT administration on apoptosis in a different human cell line, additional experiments were performed in human dermal microvascular endothelial cells (HMEC) which are endothelial cells. The apoptosis rate in epithelial cells was measured by the M30-ApoptosisSense ELISA (PEVIVA, Bromma, Sweden), detecting cytokeratin 18 with a specific monoclonal M30 antibody, whereas before cytokeratin 18 was cleaved by the enzyme caspase. The HMEC cells grew semiconfluent in cell culture flasks, before plating them on a 6 well plate. One plate was stimulated with 10-5 and 10-6 M KdPT solved in routine medium (SFM, white column), the control plate was stimulated with the routine-medium alone.
# murine DSS colitis = test: Epithelial apoptosis rate in murine DSS-colitis (anti-active Caspase 3 staining of colon sections); format: in vivo; details: DSS-treated WT mice, KdPT 10 μg/day/animal i.p. daily, vs PBS control, P<0.05
# Description: To further evaluate the impact of KdPT on the epithelial apoptosis rate in vivo, the murine DSS colitis was performed. Dextran sodium sulfate (DSS)-induced colitis was accomplished as described in Bettenworth Am J Pathol 2011. WT mice were given 3% DSS (ICN Biomedicals Inc., Eschwege, Germany) in drinking water for 5 days, and disease activity was monitored daily by body weight measurement. Afterwards, the mice received regular drinking water again to monitor the improvement in inflammation. PBS-diluted KdPT (10 μg/day/animal; Bachem Americas Inc., Torrance, Calif.) was given daily by intraperitoneal (i.p.). injection until the end of the experiment. Control mice received PBS only.
# At the end of the experiment, the mice were sacrificed and the colons removed. The colons were opened, embedded in Tissue-Tek O.C.T. (Sukura Finetek Europe, Zoeterwoude, The Netherlands), and kept frozen at −80° C. until further use. […] Immunhistological stainings were analyzed by two blinded investigators.
# To assess apoptosis rate, the number of anti-active Caspase 3 positive cells per total crypt epithelial cells was counted. The number of anti-active Caspase 3 positive cells in colonic tissue was assessed as a […], determined after KdPT administration in DSS-treated mice.
# experimental colitis = details: both colitis models (DSS, IL-10 gene-deficient mice); cited from earlier work
# colonic epithelial cells = details: cited from earlier work
# melanogenesis = details: in vitro; cited from earlier work
# human sebocytes = details: cited from earlier work
substance,measurement,setting,value
(I)Lys-(d)Pro-(I)Thr [KdPT],apoptosis rate on costimulation with KdPT (in words),[1],significant reduction of the apoptosis rate
same,"apoptosis rate (M30 ELISA, cytokeratin 18)","[2]; HMEC costimulated with KdPT, 24 h incubation, control 1150.5 U/I",965.9 U/I
same,reduction of apoptosis rate,"[2]; HMEC, 10-5 and 10-6 M KdPT, 24 h incubation, vs control plate, p=0.002",19.2%
same,apoptosis rate on costimulation with KdPT (in words),"[2]; HMEC, FIG. 2",significant reduction of the apoptosis rate
same,number of anti-active Caspase 3 positive cells per total crypt epithelial cells,murine DSS colitis,dramatically decreased
same,severity of inflammation,experimental colitis,markedly reduced severity of inflammation
same,transepithelial electrical resistance,colonic epithelial cells; after stimulation with interferon-γ/tumor necrosis factor-α,improved transepithelial electrical resistance
same,closure of wounds,colonic epithelial cells; colonic epithelial cells,accelerated closure of wounds
same,proliferation,colonic epithelial cells; colonic epithelial cells,increased proliferation
same,melanogenesis,melanogenesis,did not affect melanogenesis
same,IL-1(beta)-mediated cytokine expression and signaling,human sebocytes,suppresses
